In one series the test system is TNBC cells. The following applies: read-out: IC50, TNBC cells in vitro; FAK inhibitor; proliferation, invasion, migration; cited from earlier work.
The next series deals with Leishmania amastigotes. Also noted: method as in earlier work. The following applies: ref 24 (Gouri et al.); read-out: IC50 against Leishmania amastigotes; cited from earlier work.
For the next series, the target named is T1, LmDHFR-TS (Leishmania major, UniProt P07382).
T1 construct: made in house
T1 sequence (P07382 whole entry): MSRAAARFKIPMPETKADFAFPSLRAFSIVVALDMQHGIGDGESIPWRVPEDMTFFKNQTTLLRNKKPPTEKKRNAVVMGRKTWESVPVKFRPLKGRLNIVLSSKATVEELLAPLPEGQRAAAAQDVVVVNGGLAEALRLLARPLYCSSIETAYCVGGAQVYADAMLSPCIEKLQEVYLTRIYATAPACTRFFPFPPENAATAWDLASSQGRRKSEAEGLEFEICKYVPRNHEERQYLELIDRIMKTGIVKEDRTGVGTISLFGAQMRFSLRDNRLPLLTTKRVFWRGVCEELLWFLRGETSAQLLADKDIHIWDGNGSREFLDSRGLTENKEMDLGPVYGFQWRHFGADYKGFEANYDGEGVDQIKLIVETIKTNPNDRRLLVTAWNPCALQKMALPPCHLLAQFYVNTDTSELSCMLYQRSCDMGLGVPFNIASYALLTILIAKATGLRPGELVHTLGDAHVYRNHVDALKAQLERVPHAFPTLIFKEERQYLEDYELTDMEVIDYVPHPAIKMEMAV
The experiment in a line: LmDHFR-TS enzymatic inhibition assay (spectrophotometric standard DHFR assay). In kind it is biochemical. The settings on record: for SI (selectivity index): HsDHFR versus LmDHFR-TS. The procedure: The determination of IC50 values involved analyzing concentration-response curves within the 0.1–128 μM range, employing spectrophotometric monitoring of enzymatic activity in a standard DHFR assay.
(§1) Purification and kinetic characterization of the recombinant LmDHFR-TS protein were performed according to the previously reported procedures, while HsDHFR protein was obtained from the commercial assay kit (CS0340, Merck KGaA, Darmstadt, Germany). […] These tested compounds were available from our in-house compound library.
(§2) The assay was conducted with either LmDHFR-TS or HsDHFR (2.7 nM), bovine serum albumin (BSA, 1 mg/mL), N-[tris(hydroxymethyl)-methyl]-2-aminoethanesulfonic acid (TES) buffer (100 mM, pH 7.0, 150 mM β-mercaptoethanol, 2 mM ethylenediaminetetraacetic acid (EDTA)), and nicotinamide adenine dinucleotide phosphate (NADPH, 100 μM), along with varying concentrations of the test compounds (0.1–128 μM). The reaction was initiated by adding the substrate (7,8-dihydrofolate (H2F), 20 μM) and monitored for 360 s at 340 nm, measuring the oxidation of NADPH to NADP+. This allowed the determination of the initial reaction rate (Vo) through linear regression analysis of the resulting absorbance profile.

The target in another series is T2, HsDHFR (Homo sapiens, UniProt P00374).
T2 construct: purchased Merck KGaA CS0340
T2 sequence (P00374 1-187): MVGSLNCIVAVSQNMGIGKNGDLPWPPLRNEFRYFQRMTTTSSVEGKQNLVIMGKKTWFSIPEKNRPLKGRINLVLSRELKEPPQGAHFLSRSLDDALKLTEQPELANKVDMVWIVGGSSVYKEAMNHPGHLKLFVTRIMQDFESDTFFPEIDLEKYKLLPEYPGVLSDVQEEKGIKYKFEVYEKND
Briefly: HsDHFR enzymatic inhibition assay (spectrophotometric standard DHFR assay). The class given is biochemical. The procedure:
Following this, we calculated the selectivity index (SI) based on the results obtained from in vitro tests using the recombinant protein of Homo sapiens (Hs) DHFR.
as §1, §2

A further series relates to BEL-7402. The settings on record: read-out: IC50 cytotoxic activity, BEL-7402; BEL-7402 cell line; cited from earlier work.
For another series, the system named is HepG2. The settings on record: read-out: IC50 cytotoxic activity, HepG2; HepG2 cell line; cited from earlier work.
The mark [1] stands for this setting: recombinant LmDHFR-TS 2.7 nM, 0.1–128 μM test range, triplicate.
The mark [2] stands for this setting: HsDHFR 2.7 nM, 0.1–128 μM test range, triplicate, read-out: HsDHFR IC50.

As a reminder, the IC50 is the point on the concentration scale where inhibition reaches its midpoint.

Read-outs that look alike come from different tables or passages of the source.

Take `CN(C)CCN(C(=O)/C=C/c1c[nH]c2ccccc12)c1ccccn1` [(E)-N-(2-(dimethylamino)ethyl)-3-(1H-indol-3-yl)-N-(pyridin-2-yl) acrylamide]: the IC50 with TNBC cells is 8.37 µM.
For `O=c1cc(-c2ccccc2)oc2cc(O)cc(O)c12` [Compound 69, chrysin], the 50% inhibitory concentration (IC50) in the series on Leishmania amastigotes is 13 µM.
As to `COc1ccc([C@@H]2CC(=O)c3c(O)cc(O[C@@H]4O[C@H](CO[C@@H]5O[C@@H](C)[C@H](O)[C@@H](O)[C@H]5O)[C@@H](O)[C@H](O)[C@H]4O)cc3O2)cc1O` [Compound 140, hesperidin], at LmDHFR-TS, the half-maximal inhibitory concentration (IC50) turned out to be 21.6 µM and the “SI (selectivity index)” value is 4.0. The “LmDHFR-TS IC50” value on LmDHFR-TS (setting [1]) was “low activity”. Further, the concentration for half-maximal inhibition (IC50) on HsDHFR came to 86.5 µM.
With `O=C(/C=C/c1ccc(O)c2c1[C@H](C(=O)O)[C@@H](c1ccc(O)c(O)c1)O2)O[C@H](Cc1ccc(O)c(O)c1)C(=O)O` [Compound 237, lithospermic acid], the 50% inhibitory concentration (IC50) on LmDHFR-TS stood at 7.5 µM; on HsDHFR (setting [2]) it was 22.6 µM.
The like results for `COc1ccc(C[C@H]2COC(=O)[C@@H]2Cc2cc(OC)c(O)c(-c3cc(C[C@H]4C(=O)OC[C@@H]4Cc4ccc(OC)c(OC)c4)cc(OC)c3O)c2)cc1OC` [Compound 306, diarctigenin] were, in that order, 6.1 µM and 27.9 µM.
As to `COc1cc(C[C@H]2COC(=O)[C@@H]2Cc2cc(OC)c3c(c2)[C@H](CO)[C@@H](c2ccc(O)c(OC)c2)O3)ccc1O` [Compound 308, isolappaol A], the 50% inhibitory concentration (IC50) against LmDHFR-TS was 10.1 µM; on HsDHFR (setting [2]), 44.8 µM.
For the molecule `C[C@H]1CCC/C=C/[C@@H]2C[C@H](O)C[C@H]2[C@H](OC(=O)/C=C/c2ccc(N(C)C)cc2)/C=C/C(=O)O1` [brefeldin A 4-O-(4)-dimethylaminocinnamate], the IC50 with BEL-7402 was 0.84 µM; in the series with HepG2 it was 0.29 µM.
In the case of `O=C(O)/C=C/c1ccccc1` [cinnamic acid], the IC50 with Leishmania amastigotes was 0.25 µM.
As to `O=c1cc(-c2ccc(O[C@@H]3O[C@H](CO)[C@@H](O)[C@H](O)[C@H]3O)cc2)oc2cc(O)c([C@@H]3O[C@H](CO)[C@@H](O)[C@H](O)[C@H]3O)c(O)c12` [isovitexin 4′-O-glucoside], the “SI (selectivity index)” value on LmDHFR-TS is 2.4. Also, the “LmDHFR-TS IC50” value on LmDHFR-TS (setting [1]) is “low activity”. In addition, the IC50 at LmDHFR-TS (recombinant LmDHFR-TS 2.7 nM, 0.1–128 μM test range, triplicate, read-out: LmDHFR-TS IC50) was 53.2 µM; at HsDHFR (setting [2]) it was 126 µM.
Take `C=CC(C)(C)c1cc(/C=C/C(=O)c2ccc(O)cc2)c(OC)cc1O` [licochalcone A]: in the series on Leishmania amastigotes, the concentration for half-maximal inhibition (IC50) is 0.9 µM.
`O=c1cc(-c2ccc(O)c(O)c2)oc2cc(O)cc(O)c12` [luteolin]: in the series on Leishmania amastigotes, the IC50 is 3.12 µM.
As for `O=c1c(O)c(-c2ccc(O)c(O)c2)oc2cc(O)cc(O)c12` [quercetin], the IC50 in the series on Leishmania amastigotes was 10.5 µM.
Consider `C[C@@H]1O[C@@H](OC[C@H]2O[C@@H](Oc3c(-c4ccc(O)c(O)c4)oc4cc(O)cc(O)c4c3=O)[C@H](O)[C@@H](O)[C@@H]2O)[C@H](O)[C@H](O)[C@H]1O` [rutin], for which, on LmDHFR-TS, the half-inhibitory concentration (IC50) amounted to 41.7 µM and the “SI (selectivity index)” value was 4.5. For the same molecule, the “LmDHFR-TS IC50” value on LmDHFR-TS (setting [1]) is given as “low activity”. The IC50 on HsDHFR (setting [2]) turned out to be 189 µM.

Source of the values: publication PMC10779987, “Machine-Learning- and Structure-Based Virtual Screening for Selecting Cinnamic Acid Derivatives as Leishmania major DHFR-TS Inhibitors” (Molecules, 2023).
